Experimental data from PubChem BioAssay AID504401 (The Scripps Research Institute Molecular Screening Center, 2011).
Active and inactive are the calls of the source. No rule for the calls is given here.

Key:
Test in all cases: CYP450 and receptor off-target profile – biochemical, Ricerca HitProfilingScreen, selectivity assay for GPR7 antagonist project, late-stage follow-up (AID 504401)
[1] = target: Alpha-2A adrenergic receptor (Homo sapiens) (UniProt P08913); conditions: Ricerca radioligand binding and CYP450 panel; Adrenergic alpha2A; at 10 µM; active compounds read high
[2] = target: Cytochrome P450 3A4 (Homo sapiens) (UniProt P08684); conditions: Ricerca radioligand binding and CYP450 panel; CYP450 3A4; at 10 µM; active compounds read high
Nicotinic Acetylcholine = conditions: Ricerca radioligand binding and CYP450 panel, at 10 µM, active compounds read high
GABAA = conditions: Ricerca radioligand binding and CYP450 panel, central, at 10 µM, active compounds read high
[3] = target: Muscarinic acetylcholine receptor M2 (Homo sapiens) (UniProt P08172); conditions: Ricerca radioligand binding and CYP450 panel, at 10 µM, active compounds read high
CYP450 2C19 = conditions: Ricerca radioligand binding and CYP450 panel, at 10 µM, active compounds read high
Adrenergic beta1 = conditions: Ricerca radioligand binding and CYP450 panel, at 10 µM, active compounds read high
[4] = test system: Norepinephrine Transporter (NET); conditions: Ricerca radioligand binding and CYP450 panel, at 10 µM, active compounds read high
Sodium Channel = conditions: Ricerca radioligand binding and CYP450 panel, site 2, at 10 µM, active compounds read high
Calcium Channel L-Type = conditions: Ricerca radioligand binding and CYP450 panel, Dihydropyridine site, at 10 µM, active compounds read high
[5] = target: Voltage-gated inwardly rectifying potassium channel KCNH2 (Homo sapiens) (UniProt Q12809); conditions: Ricerca radioligand binding and CYP450 panel; Potassium Channel hERG; at 10 µM; active compounds read high
[6] = target: Muscarinic acetylcholine receptor M3 (Homo sapiens) (UniProt P20309); conditions: Ricerca radioligand binding and CYP450 panel, at 10 µM, active compounds read high
[7] = target: 5-hydroxytryptamine receptor 2B (Homo sapiens) (UniProt P41595); conditions: Ricerca radioligand binding and CYP450 panel; Serotonin (5-Hydroxytryptamine) 5-HT2B; at 10 µM; active compounds read high
Adenosine A1 = conditions: Ricerca radioligand binding and CYP450 panel, at 10 µM, active compounds read high
[8] = target: Cytochrome P450 2C9 (Homo sapiens) (UniProt P11712); conditions: Ricerca radioligand binding and CYP450 panel; CYP450 2C9; at 10 µM; active compounds read high
[9] = target: D(1A) dopamine receptor (Homo sapiens) (UniProt P21728); conditions: Ricerca radioligand binding and CYP450 panel; Dopamine D1; at 10 µM; active compounds read high
Glutamate NMDA = conditions: Ricerca radioligand binding and CYP450 panel, Phencyclidine site, at 10 µM, active compounds read high
Adenosine A2A = conditions: Ricerca radioligand binding and CYP450 panel, at 10 µM, active compounds read high
Sigma 1 = conditions: Ricerca radioligand binding and CYP450 panel, at 10 µM, active compounds read high
Prostanoid EP4 = conditions: Ricerca radioligand binding and CYP450 panel, at 10 µM, active compounds read high
Dopamine D2S = conditions: Ricerca radioligand binding and CYP450 panel, at 10 µM, active compounds read high
[10] = test system: Alpha-2A adrenergic receptor (Homo sapiens) + Histamine H1 receptor (Homo sapiens) + Mu-type opioid receptor (Homo sapiens); conditions: Ricerca radioligand binding and CYP450 panel; at 10 µM; active compounds read high
Histamine H1 = conditions: Ricerca radioligand binding and CYP450 panel, at 10 µM, active compounds read high
[11] = target: Cytochrome P450 2D6 (Homo sapiens) (UniProt P10635); conditions: Ricerca radioligand binding and CYP450 panel; CYP450 2D6; at 10 µM; active compounds read high
[12] = target: Cytochrome P450 1A2 (Homo sapiens) (UniProt P05177); conditions: Ricerca radioligand binding and CYP450 panel; CYP450 1A2; at 10 µM; active compounds read high
Opiate mu (OP3, MOP) = conditions: Ricerca radioligand binding and CYP450 panel, at 10 µM, active compounds read high
Cannabinoid CB1 = conditions: Ricerca radioligand binding and CYP450 panel, at 10 µM, active compounds read high
[13] = target: Beta-2 adrenergic receptor (Homo sapiens) (UniProt P07550); conditions: Ricerca radioligand binding and CYP450 panel; Adrenergic beta2; at 10 µM; active compounds read high
Adrenergic alpha1B = conditions: Ricerca radioligand binding and CYP450 panel, at 10 µM, active compounds read high
Adrenergic alpha1A = conditions: Ricerca radioligand binding and CYP450 panel, at 10 µM, active compounds read high

Cytochrome P450 2C9 (Homo sapiens), sequence (P11712 whole entry, looked up): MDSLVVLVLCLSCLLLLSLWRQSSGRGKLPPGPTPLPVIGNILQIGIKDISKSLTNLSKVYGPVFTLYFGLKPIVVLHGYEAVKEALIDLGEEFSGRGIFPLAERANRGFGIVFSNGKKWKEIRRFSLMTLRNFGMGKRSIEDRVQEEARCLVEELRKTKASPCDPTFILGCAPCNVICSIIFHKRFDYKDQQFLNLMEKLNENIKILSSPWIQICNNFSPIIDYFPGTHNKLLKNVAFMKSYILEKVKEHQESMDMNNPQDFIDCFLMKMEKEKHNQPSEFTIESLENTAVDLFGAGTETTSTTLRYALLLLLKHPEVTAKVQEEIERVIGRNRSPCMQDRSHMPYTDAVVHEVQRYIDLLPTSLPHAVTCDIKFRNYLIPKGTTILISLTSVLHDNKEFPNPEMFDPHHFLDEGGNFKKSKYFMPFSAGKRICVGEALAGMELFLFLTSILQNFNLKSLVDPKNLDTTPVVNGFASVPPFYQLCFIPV
D(1A) dopamine receptor (Homo sapiens), sequence (P21728 whole entry, looked up): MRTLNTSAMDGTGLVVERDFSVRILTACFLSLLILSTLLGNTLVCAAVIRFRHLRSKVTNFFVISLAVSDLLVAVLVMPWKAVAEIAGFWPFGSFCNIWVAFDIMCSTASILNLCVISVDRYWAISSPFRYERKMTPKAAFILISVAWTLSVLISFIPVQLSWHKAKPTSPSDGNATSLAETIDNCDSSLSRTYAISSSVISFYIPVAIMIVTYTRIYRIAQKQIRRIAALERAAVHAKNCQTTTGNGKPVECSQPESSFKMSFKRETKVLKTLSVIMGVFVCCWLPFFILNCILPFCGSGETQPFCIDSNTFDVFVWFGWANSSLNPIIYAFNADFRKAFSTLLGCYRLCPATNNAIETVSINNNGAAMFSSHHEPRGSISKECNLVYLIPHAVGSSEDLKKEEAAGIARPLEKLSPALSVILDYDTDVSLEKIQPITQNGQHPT
Beta-2 adrenergic receptor (Homo sapiens), sequence (P07550 whole entry, looked up): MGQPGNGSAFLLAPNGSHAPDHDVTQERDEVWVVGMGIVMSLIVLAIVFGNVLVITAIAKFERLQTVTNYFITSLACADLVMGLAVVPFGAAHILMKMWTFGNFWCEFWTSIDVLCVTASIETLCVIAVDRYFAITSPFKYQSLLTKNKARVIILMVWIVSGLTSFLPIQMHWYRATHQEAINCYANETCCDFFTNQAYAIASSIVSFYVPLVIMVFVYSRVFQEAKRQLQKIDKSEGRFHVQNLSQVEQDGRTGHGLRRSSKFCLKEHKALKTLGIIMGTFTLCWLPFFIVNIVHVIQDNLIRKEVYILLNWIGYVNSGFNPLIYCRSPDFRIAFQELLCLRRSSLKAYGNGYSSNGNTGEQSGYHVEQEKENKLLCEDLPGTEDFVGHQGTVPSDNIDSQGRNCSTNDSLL
Cytochrome P450 2D6 (Homo sapiens), sequence (P10635 whole entry, looked up): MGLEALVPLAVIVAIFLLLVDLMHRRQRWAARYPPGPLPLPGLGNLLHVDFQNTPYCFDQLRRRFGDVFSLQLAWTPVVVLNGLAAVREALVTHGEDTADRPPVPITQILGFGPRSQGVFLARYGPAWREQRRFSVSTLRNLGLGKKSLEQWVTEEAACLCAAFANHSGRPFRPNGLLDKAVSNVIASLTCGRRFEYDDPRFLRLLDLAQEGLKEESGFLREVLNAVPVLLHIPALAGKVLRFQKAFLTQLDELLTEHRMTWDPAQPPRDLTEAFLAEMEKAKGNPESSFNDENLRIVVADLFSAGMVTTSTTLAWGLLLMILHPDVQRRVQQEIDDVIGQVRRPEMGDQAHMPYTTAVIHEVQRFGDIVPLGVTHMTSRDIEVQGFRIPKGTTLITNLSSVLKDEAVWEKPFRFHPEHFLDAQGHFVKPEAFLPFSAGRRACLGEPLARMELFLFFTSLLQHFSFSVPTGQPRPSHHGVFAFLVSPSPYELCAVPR
Cytochrome P450 3A4 (Homo sapiens), sequence (P08684 whole entry, looked up): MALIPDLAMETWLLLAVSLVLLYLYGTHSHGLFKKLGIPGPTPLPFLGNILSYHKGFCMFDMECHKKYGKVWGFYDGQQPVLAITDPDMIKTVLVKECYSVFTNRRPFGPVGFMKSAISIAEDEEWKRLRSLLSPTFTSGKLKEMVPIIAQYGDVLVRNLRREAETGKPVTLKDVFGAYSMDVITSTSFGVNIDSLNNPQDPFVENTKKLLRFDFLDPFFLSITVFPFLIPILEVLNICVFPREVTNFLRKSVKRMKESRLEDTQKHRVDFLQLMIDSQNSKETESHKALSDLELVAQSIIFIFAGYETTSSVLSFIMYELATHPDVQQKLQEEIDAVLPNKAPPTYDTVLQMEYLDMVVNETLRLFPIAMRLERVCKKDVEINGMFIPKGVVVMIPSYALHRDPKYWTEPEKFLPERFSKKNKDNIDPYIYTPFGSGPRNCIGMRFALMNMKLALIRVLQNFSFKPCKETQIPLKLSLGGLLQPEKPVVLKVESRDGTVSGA
Muscarinic acetylcholine receptor M2 (Homo sapiens), sequence (P08172 whole entry, looked up): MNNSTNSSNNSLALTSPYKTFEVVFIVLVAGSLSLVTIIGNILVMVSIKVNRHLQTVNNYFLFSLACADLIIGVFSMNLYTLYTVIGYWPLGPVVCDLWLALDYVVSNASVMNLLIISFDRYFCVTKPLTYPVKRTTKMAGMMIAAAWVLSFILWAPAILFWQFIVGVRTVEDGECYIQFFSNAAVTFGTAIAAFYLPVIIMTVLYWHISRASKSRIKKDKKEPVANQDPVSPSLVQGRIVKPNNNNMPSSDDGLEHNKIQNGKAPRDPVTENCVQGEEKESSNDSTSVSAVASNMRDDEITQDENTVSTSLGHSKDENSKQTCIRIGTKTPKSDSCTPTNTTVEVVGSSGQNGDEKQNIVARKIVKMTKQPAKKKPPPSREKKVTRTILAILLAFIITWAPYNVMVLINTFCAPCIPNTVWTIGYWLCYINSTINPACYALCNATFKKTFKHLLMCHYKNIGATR
Cytochrome P450 1A2 (Homo sapiens), sequence (P05177 whole entry, looked up): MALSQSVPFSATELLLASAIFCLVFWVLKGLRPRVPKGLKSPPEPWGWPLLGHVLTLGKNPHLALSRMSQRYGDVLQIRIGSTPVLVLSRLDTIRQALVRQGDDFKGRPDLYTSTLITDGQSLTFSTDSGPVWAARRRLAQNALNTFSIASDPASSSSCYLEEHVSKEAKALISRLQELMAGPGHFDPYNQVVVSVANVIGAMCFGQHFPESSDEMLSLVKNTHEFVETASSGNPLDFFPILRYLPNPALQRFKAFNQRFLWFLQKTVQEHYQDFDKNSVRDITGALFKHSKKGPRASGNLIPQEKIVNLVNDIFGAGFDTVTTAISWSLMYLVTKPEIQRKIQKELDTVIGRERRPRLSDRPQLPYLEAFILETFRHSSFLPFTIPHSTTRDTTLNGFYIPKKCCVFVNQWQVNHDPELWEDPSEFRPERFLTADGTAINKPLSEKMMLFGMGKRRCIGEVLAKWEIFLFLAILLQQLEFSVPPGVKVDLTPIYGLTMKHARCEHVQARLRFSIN
Voltage-gated inwardly rectifying potassium channel KCNH2 (Homo sapiens), sequence (Q12809 whole entry, looked up): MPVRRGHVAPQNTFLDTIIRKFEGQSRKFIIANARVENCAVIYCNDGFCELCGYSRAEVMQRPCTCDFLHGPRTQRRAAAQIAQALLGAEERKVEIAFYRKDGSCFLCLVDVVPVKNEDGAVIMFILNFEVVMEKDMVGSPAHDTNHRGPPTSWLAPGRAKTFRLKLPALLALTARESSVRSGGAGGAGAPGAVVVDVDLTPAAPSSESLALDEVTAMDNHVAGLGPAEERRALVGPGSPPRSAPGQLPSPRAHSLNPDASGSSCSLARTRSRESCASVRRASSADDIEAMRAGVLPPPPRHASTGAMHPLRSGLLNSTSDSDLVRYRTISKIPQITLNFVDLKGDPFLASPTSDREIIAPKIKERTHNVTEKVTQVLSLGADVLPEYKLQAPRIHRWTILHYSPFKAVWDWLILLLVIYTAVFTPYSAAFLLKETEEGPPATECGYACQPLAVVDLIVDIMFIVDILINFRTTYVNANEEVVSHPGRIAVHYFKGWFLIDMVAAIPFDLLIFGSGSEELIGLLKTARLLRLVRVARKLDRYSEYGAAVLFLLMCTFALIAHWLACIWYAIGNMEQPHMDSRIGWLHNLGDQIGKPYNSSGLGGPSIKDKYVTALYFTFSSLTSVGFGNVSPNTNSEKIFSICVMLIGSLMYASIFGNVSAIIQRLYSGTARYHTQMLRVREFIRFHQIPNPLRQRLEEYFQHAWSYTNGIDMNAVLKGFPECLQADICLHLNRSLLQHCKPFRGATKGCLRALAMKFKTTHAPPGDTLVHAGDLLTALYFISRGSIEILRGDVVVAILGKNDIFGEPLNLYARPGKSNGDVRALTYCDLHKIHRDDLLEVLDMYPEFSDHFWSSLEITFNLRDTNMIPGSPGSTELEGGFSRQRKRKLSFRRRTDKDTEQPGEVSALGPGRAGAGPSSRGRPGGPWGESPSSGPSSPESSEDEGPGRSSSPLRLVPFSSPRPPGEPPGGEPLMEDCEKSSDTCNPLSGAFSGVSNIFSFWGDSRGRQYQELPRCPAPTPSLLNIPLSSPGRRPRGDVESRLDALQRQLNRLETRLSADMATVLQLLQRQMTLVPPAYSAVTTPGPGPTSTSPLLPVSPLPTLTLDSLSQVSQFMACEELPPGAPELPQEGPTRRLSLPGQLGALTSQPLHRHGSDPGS
Alpha-2A adrenergic receptor (Homo sapiens), sequence (P08913 whole entry, looked up): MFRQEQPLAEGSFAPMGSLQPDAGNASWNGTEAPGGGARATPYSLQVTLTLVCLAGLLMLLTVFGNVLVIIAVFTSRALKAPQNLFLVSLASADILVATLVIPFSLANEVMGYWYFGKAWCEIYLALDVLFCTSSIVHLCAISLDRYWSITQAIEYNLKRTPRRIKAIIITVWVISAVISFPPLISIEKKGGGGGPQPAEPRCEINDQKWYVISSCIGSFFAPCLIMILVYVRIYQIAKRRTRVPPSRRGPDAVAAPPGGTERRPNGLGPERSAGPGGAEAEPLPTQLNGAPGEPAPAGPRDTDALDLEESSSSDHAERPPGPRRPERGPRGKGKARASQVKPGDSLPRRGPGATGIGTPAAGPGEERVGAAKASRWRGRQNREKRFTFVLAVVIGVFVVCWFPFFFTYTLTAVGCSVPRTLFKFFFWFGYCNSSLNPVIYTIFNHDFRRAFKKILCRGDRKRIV

In the case of `COc1ccc(Oc2c(Cl)cnn(-c3cc(C)cc(C)c3)c2=O)cc1`, the inhibition [1] is reported as 8% (inactive), the inhibition [2] is reported as 53% and the inhibition (Nicotinic Acetylcholine) is reported as -22% (inactive). The inhibition (GABAA; Flunitrazepam site) was -1% (inactive), the inhibition (GABAA; Muscimol site) was 4% (inactive) and the inhibition [3] was 2% (inactive). The inhibition (CYP450 2C19) was -3% (inactive), the inhibition (Adrenergic beta1) was 13% (inactive) and the inhibition [4] was 47% (inactive). The inhibition (Sodium Channel) was 23% (inactive), the inhibition (Calcium Channel L-Type) was 26% (inactive) and the inhibition [5] was 13% (inactive). The inhibition [6] was 0% (inactive), the inhibition [7] was 8% (inactive) and the inhibition (Adenosine A1) was 19% (inactive). The inhibition [8] was 5% (inactive), the inhibition [9] was 5% (inactive) and the inhibition (Glutamate NMDA) was -3% (inactive). For the same molecule, the inhibition (Adenosine A2A) was 14% (inactive), the inhibition (Sigma 1) was -4% (inactive) and the inhibition (Prostanoid EP4) was 2% (inactive). For the same molecule, the inhibition (Dopamine D2S) was 13% (inactive), the inhibition [10] was -3% (inactive) and the inhibition (Histamine H1) was 16% (inactive). For the same molecule, the inhibition [11] was 16% (inactive), the inhibition [12] was 11% (inactive) and the inhibition (Opiate mu (OP3, MOP)) was -7% (inactive). The inhibition (Cannabinoid CB1) was 25% (inactive), the inhibition [13] was -2% (inactive) and the inhibition (Adrenergic alpha1B) was 3% (inactive). For the same molecule, the inhibition (Adrenergic alpha1A) was 2% (inactive).
